Experimental findings from US5017574A, “Novel imidazobenzodiazepines” (Roussel Uclaf, priority 1989, dated 1991) are described below.

Assay [1] relates to benzodiazepine receptors. In words: In vivo binding to benzodiazepine receptors (Test 2). To be noted: ip. As to the method: Measurement of in vivo binding to benzodiazepine receptors was carried out according to the method described by Goeders at al., Life Sciences (1985) Vol. 37, p. 345.
Assay [2] addresses benzodiazepine receptors. In words: Affinity for benzodiazepine receptors: inhibition of specific 3H-flunitrazepam binding (Test 1). The conditions noted are these: 0.6×10^-9 mol 3H-flunitrazepam; membranes from the rear portion of the rat brain; read-out: Test 1: concentration which inhibited 50% of the specific binding of 3H-labelled flunitrazepam (IC50). As to the method: The affinity of the active ingredients for the benzodiazepine receptors was measured using a radioactively labelled (^3 H) compound, flunitrazepam, in a modified version of the method of Squires et al (Nature, 1977, Vol. 266, p. 732). The values given in Table 2 below are the concentration (mol×10^-9) of the test compound which inhibited 50% of the specific binding of 0.6×10^-9 mol of ^3 H-labelled flunitrazepam in preparation of membranes from the rear portion of the brain in rats (IC50 values).

SMILES strings stand for the structures.

For the compound `CN1Cc2c(C3OCCS3)ncn2-c2ccccc2C1=O` (stereo not drawn) [Example 5, 5,6-dihydro-5-methyl-3-(1,3-oxathiolan-2-yl)-imidazo[1,5-a][1,4]benzodiazepine-6(4H)-one], the “Test 2: ED50, in vivo binding to benzodiazepine receptors” value (“Test 2: ED50, in vivo binding” below) with benzodiazepine receptors [1] worked out at 0.8 mg/kg. Moreover, the IC50 at benzodiazepine receptors [2] is 339 nM.
Turning to `CN1Cc2c(C3OCCO3)ncn2-c2cccc(C(F)(F)F)c2C1=O` [Example 3, 5,6-dihydro-3-(1,3-dioxolan-2-yl)-5-methyl-7-trifluoromethyl-imidazo[1,5-a][1,4]benzodiazepine-6(4H)-one], the “Test 2: ED50, in vivo binding” value in the assay with benzodiazepine receptors [1] was 0.09 mg/kg. The IC50 at benzodiazepine receptors [2] turned out to be 73 nM.
As for `CN1Cc2c(C3OCCO3)ncn2-c2ccccc2C1=O` [Example 1, 5,6-dihydro-3-(1,3-dioxolan-2-yl)-5-methyl-imidazo[1,5-a][1,4]benzodiazepine-6(4H)-one], the “Test 2: ED50, in vivo binding” value in the assay on benzodiazepine receptors [1] turned out to be 1.0 mg/kg. Moreover, the IC50 at benzodiazepine receptors [2] was 1080 nM.
For the compound `CN1Cc2c(C3OCCS3)ncn2-c2cccc(F)c2C1=O` (stereo not drawn) [Example 6, 5,6-dihydro-7-fluoro-5-methyl-3-(1,3-oxathiolan-2-yl)-imidazo[1,5-a][1,4]benzodiazepine-6(4H)-one], the “Test 2: ED50, in vivo binding” value with benzodiazepine receptors [1] turned out to be 0.22 mg/kg. In addition, at benzodiazepine receptors [2], the IC50 stood at 36 nM.
Taken in the same sequence, the figures for `CN1Cc2c(C3OCCS3)ncn2-c2cccc(C(F)(F)F)c2C1=O` (stereo not drawn) [Example 4, 5,6-dihydro-5-methyl-3-(1,3-oxathiolan-2-yl)-7-trifluoromethyl-imidazo[1,5-a][1,4]benzodiazepine-6(4H)-one] were 0.08 mg/kg and 10 nM.
For the compound `CN1Cc2c(C3SCCS3)ncn2-c2ccccc2C1=O` [Example 2, 5,6-dihydro-3-(1,3-dithiolan-2-yl)-5-methyl-imidazo[1,5-a][1,4]benzodiazepine-6(4H)-one], the “Test 2: ED50, in vivo binding” value in the assay with benzodiazepine receptors [1] worked out at 7.0 mg/kg. The IC50 on benzodiazepine receptors [2] came to 94 nM.
